Data as given in patent US20230022796A1 (Merck Patent GmbH, priority 2019, published 2023).

Columns and labels:
FcγRIIIa V176 = experiment: Surface plasmon resonance (Biacore) binding of mAb3 from treated cultures to FcγRIIIa
Protocol: Binding of samples after 5-ThioFuc treatment was investigated by surface plasmon resonance technology using a Biacore T200 system (GE Healthcare, Uppsala, Sweden). The analysis temperature was set to 25° C. and sample compartment temperature to 15° C. […] The anti-His antibody was further used to capture His-tagged FcγRIIIa V176 ([…]) from AcroBiosystems (Newark, Del., USA).
Binding was recorded continuously, while unspecific binding and injection artefacts were subtracted automatically. Single-cycle kinetics were used with a dissociation time of 600 s at a flow rate of 30 μL/min. Data collection rate was performed at 10 Hz. Following each experiment, both flow cells were regenerated for 30 s with 10 mM glycine-HCl pH 1.5 according to kit instructions. Data of three technical and two biological replicates were fitted with a 1:1 binding model. The global dissociation constant KD was determined from the ratio of the kinetic rate constants for dissociation (kd) and association (ka) values. Data are presented in Table 1 as fold change compared to the control.

[1] = system: CHO cell line producing mAb1; experiment: Glycosylation profile (UPLC-MS of released glycans) of mAb1 from fed-batch; format: cell-based, Chinese hamster; conditions: for reduction of the fucosylation compared to the control: mAb1, same concentration of both additives
Protocol: Glycosylation patterns were analyzed by ultra-performance liquid chromatography coupled to a mass spectrometer (UPLC-MS). The purified antibody was denaturated and the glycans were released from the antibody by digestion with peptide N-glycosidase F (PNGase F) followed by labeling the glycans with the GlycoWorks™ RapiFluor-MS™ N-Glycan Kit according to the manufacturer protocol. For the analysis, an UPLC glycan column (2.1×150 mm) that separated the glycans according to their […] was used. The chromatography was performed at 45° C. using 50 mM ammonium formate (A), pH 4.4 solution and an acetonitrile (B) gradient. In detail, at the beginning the ratio of A:B was 20:80 (0 min) and changed to 27:73 at 3 min and 37:63 at 35 min at a flow rate of 0.5 ml/min. From 36.5 min to 39.5 min only A was used as mobile phase and the flow rate was reduced to 0.2 ml/min. Subsequently, the ratio was changed to 20% A:80% B and the flowrate was increased to 0.5 ml/min at 43.1 min until the end of the process at 55 min. The detection was performed by a fluorescence detector with an excitation wavelength of 265 nm and an emission wavelength of 425 nm. The identification of the glycan structures was performed by MS using positive electro spray ionization (ESI), which was calibrated every 30 s with a standard.
Four different clones of Chinese hamster ovary (CHO) cells expressing three different monoclonal antibodies (mAb) and a fusion protein were tested. Cells were cultivated in spin tubes between 14 and 20 days at 37° C., 5% CO2, and 80% humidity. As starting cell density, 3×10^5 cells/mL in 30 mL Cellvento®4CHO media (pH 7.0±0.1) was used for clone 1 and 2 producing mAb1 and mAb2, respectively (Cellvento® Platform). Cells were cultivated at an agitation of 320 rpm and were fed on day 3, 5, 10, 12 and 14 with 3% volume of Cellvento® 4Feed (v/v) and on day 7 with 6% (v/v) of the feed. Clone 3 and 4 producing mAb3 and a fusion protein were inoculated at the same cell density in 30 mL Ex-Cell® Advanced Media (pH 7.2±0.1) while agitation was set to 230 rpm (Ex-Cell® Platform). Clones 3 and 4 were fed with […] Advanced Feed (v/v) on day 3, 5, 7, 10, 12, 14 and 17. […] The pH of all Cellvento® feeds was adjusted to 7.0±0.1 and Ex-Cell® Feeds were adjusted to 8.5±0.1. The glucose level was maintained above 4 g/L by adding a specific amount of a 400 g/L glucose stock solution on demand to up to 6 g/L during the week and up to 13 g/L over the weekend. Glucose and titer were detected in the supernatant with the bioprocess analyzer CEDEX Bio HT (Roche, Mannheim, Germany).
To investigate the glycosylation profile during the fed-batch experiment samples were centrifugated and antibodies and Fc-fusion proteins were purified from the cell culture supernatant using protein A PhyTips® (PhyNexus Inc, San Jose, Calif.). Glycosylation patterns were analyzed as described by ultra-performance liquid chromatography coupled to a mass spectrometer (UPLC-MS) using the GlycoWorks™ RapiFluor-MS™ N-Glycan Kit.
Glycosylation profile on day 12 was visualized since harvest of recombinant produced proteins on day 12 is common. Quantification of the glycans was obtained using the relative peak area of the fluorescence signal. Almost all peaks were assigned to glycan structures according to their mass. Unknown glycan structures and signals without mass detection were summarized as unknown species (not shown). Four different clones of Chinese hamster ovary (CHO) cells expressing three different monoclonal antibodies (mAb) and a fusion protein were tested. […] The known positive control achieved a […] level on day 12 by increasing the afucosylation to 78%. The same amount of afucosylation compared to the known fucose-analogue acetylated 2F-Fucose was only achieved by clone 3 expressing mAb3 leading to about […] on day 12 (FIG. 8 C). […]

[2] = system: CHO cell line producing mAb3; experiment: Fed-batch cell performance (viable cell density), clone 3 producing mAb3; format: cell-based, Chinese hamster; conditions: mAb3, feed with 400 μM additive
Protocol: Four different clones of Chinese hamster ovary (CHO) cells expressing three different monoclonal antibodies (mAb) and a fusion protein were tested. Cells were cultivated in spin tubes between 14 and 20 days at 37° C., 5% CO2, and 80% humidity. As starting cell density, 3×10^5 cells/mL in 30 mL Cellvento®4CHO media (pH 7.0±0.1) was used for clone 1 and 2 producing mAb1 and mAb2, respectively (Cellvento® Platform). Cells were cultivated at an agitation rate of 320 rpm and were fed on day 3, 5, 10, 12 and 14 with 3% volume of Cellvento® 4Feed (v/v) and on day 7 with 6% (v/v) of the feed. Clone 3 and 4 producing mAb3 and a fusion protein were inoculated at the same cell density in 30 mL Ex-Cell® Advanced Media (pH 7.2±0.1) while agitation was set to 230 rpm. Clones 3 and 4 were fed with 5% Ex-Cell® Advanced Feed (v/v) on day 3, 5, 7, 10, 12, 14 and 17. […]
The glucose level was maintained above 4 g/L by adding a specific amount of a 400 g/L glucose stock solution on demand to up to 6 g/L during the week and up to 13 g/L over the weekend. Glucose and titer were detected in the supernatant with the bioprocess analyzer CEDEX Bio HT (Roche, Mannheim, Germany) based on spectrophotometric and turbidometric methods. The viable cell density (VCD) and viability were evaluated with a Vi-CELL™ XR 2.04 cell counter (Beckman Coulter, Fullerton, Calif., USA). […]

Work on C[C@@H]1SC(O)[C@@H](O)[C@H](O)[C@@H]1O (some centres unmarked) yielded a Kd (FcγRIIIa V176; mAb3 from culture fed with 50 μM additive, day 5) of 85 nM, a Kd (FcγRIIIa V176; mAb3 from culture fed with 50 μM additive, day 12) of 63 nM and a Kd (FcγRIIIa V176; mAb3 from culture fed with 50 μM additive, day 14) of 61 nM. It also gave a Kd (FcγRIIIa V176; mAb3 from culture fed with 200 μM additive, day 5) of 52 nM, a Kd (FcγRIIIa V176; mAb3 from culture fed with 200 μM additive, day 12) of 40 nM and a Kd (FcγRIIIa V176; mAb3 from culture fed with 200 μM additive, day 14) of 28 nM. For the same compound, the Kd (FcγRIIIa V176; mAb3 from culture fed with 400 μM additive, day 5) was 35 nM, the Kd (FcγRIIIa V176; mAb3 from culture fed with 400 μM additive, day 12) was 32 nM and the Kd (FcγRIIIa V176; mAb3 from culture fed with 800 μM additive, day 5) was 40 nM. The core-fucosylated glycans ([1]; mAb1, 400 μM additive, day 12) was “about 26%”, the “reduction of the fucosylation compared to the control” value (“reduction of the fucosylation” for short) ([1]; day 7) was 64% and the “reduction of the fucosylation” value ([1]; day 10) was 68%. For the same compound, the “reduction of the fucosylation” value ([1]; day 12) was 67% and the “reduced VCD (area under the curve until day 17, compared to the control)” value [2] was “about 13%”.
